The test system of test [1] is NT2 cells. The experiment in a line: Dose response of NT2 cell viability to drugs, trypan blue method. The test is classed as cell-based. The settings on record: for IC50: Homo sapiens, 18 hours, trypan blue, read-out: dose resulting in 50% killing at 18 hours. How it is done:
Drug treatments: Dose response curves were established for etoposide, vincristine and staurosporine in NT2 cells (FIGS. 3Ai, 3Bi and 3Ci). […] Survival represents the number of drug treated viable cells divided by the number of untreated viable cells and expressed as a percentage. Protection is calculated as the difference in survival between CLN3-overexpressing cells and the vector-transfected control cells. The degree of protection is calculated as the difference in survival between treated CLN3-overexpressing and vector control cells divided by the survival of treated vector control cells. The values are from three separate experiments, each of which was carried out in triplicate (FIGS. 3Aii, 3Bii, and 3Cii).

Test [2] has as its system NT2 cells. Description: DNA fragmentation (low molecular weight DNA ladder) in NT2 cells. The test is classed as cell-based. How it is done: FIG. 4. […] NT2 cells were transiently transfected with CLN3 (lanes 1, 3 and 5) or vector alone (lanes 2, 4 and 6) followed by treatment with either 10 μg/ml etoposide (lanes 1 and 2) or 500 nM staurosporine (lanes 3 and 4) or 1 μg/ml vincristine (lanes 5 and 6). Low molecular weight DNA was extracted and analyzed on a 2% agarose gel in Tris-Borate-EDTA buffer (Rosenbaum et al, Ann. Neurol. 36, 864-870 (1994)).
A hallmark of apoptosis is the fragmentation of nuclear DNA into nucleosome-sized fragments creating a DNA ladder of 180 bp and its concatamers (Arends M J, et al., Am. J. Pathol. 136: 593-608 (1990)). […] NT2 cells were transiently transfected with CLN3 or vector alone, then treated with the drugs prior to the extraction of low molecular weight DNA (Rosenbaum D M, et al., Ann. Neurol. 36: 864-870 (1994)).

In brackets after ≈: the same amount, converted by molar mass.

In the case of `CCCCCCCCCCCCC/C=C/[C@@H](O)[C@H](CO)NC(C)=O` [C2-ceramide], in test [1] (increasing concentrations, counted at 6, 12, 18 and 24 hour), the “apoptosis induction in NT2 cells” value was “effective apoptotic agent”.

In the case of `COc1cc([C@@H]2c3cc4c(cc3[C@@H](O[C@@H]3O[C@@H]5CO[C@@H](C)O[C@H]5[C@H](O)[C@H]3O)[C@H]3COC(=O)[C@H]23)OCO4)cc(OC)c1O` [etoposide], in test [2], the “DNA fragmentation in NT2 cells caused by drug” value (“DNA fragmentation” for short) was “cause DNA fragmentation”. Besides, the IC50 in test [1] (NT2 cells) turned out to be 10 µg/mL (≈ 17 µM). `CN[C@@H]1C[C@H]2O[C@@](C)([C@@H]1OC)n1c3ccccc3c3c4c(c5c6ccccc6n2c5c31)C(=O)NC4` [staurosporine]: the “DNA fragmentation” value in test [2] was “cause DNA fragmentation”. Also, the “optimal concentration for causing apoptosis in NT2 cells” value in test [1] (NT2 cells, dose response curves) is reported as 500 nM. For the molecule `CC[C@]1(O)C[C@H]2CN(CCc3c([nH]c4ccccc34)[C@@](C(=O)OC)(c3cc4c(cc3OC)N(C=O)[C@H]3[C@@](O)(C(=O)OC)[C@H](OC(C)=O)[C@]5(CC)C=CCN6CC[C@]43[C@@H]65)C2)C1` [vincristine], in test [2], the “DNA fragmentation” value was “cause DNA fragmentation”. Moreover, the IC50 in test [1] (NT2 cells) was 1 µg/mL (≈ 1.21 µM).
